Measurements from patent US9012443B2 (Amgen Inc., priority 2011, dated 2015).
Like-named read-outs stand apart in the source and are kept apart here.

Assays:
Format in all cases: cell-based
Nav 1.7 [1] = molecular target: T1, Nav 1.7 (Homo sapiens (Human), UniProt Q15858); assay: Nav 1.7 IWQ in vitro assay (IonWorks Quattro population patch-clamp); conditions: 293 cells stably transfected with Nav 1.7; first part of table; read-out: Nav 1.7 IWQ IC50
Summary of the method: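 Percent block, measured in duplicate, came from peak minus end-of-pulse current on the 26th −20 mV step, and IC50 was fitted against concentration. Stably transfected 293 cells were recorded in population patch-clamp mode before and after a single test concentration, which was added over 3–8 min while cells were unclamped.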

Nav 1.5 = Nav 1.5 (Homo sapiens (Human), UniProt Q14524); assay: Nav 1.5 in vitro PX assay (PatchXpress whole cell voltage clamp)
Nav 1.5, sequence (Q14524 whole entry): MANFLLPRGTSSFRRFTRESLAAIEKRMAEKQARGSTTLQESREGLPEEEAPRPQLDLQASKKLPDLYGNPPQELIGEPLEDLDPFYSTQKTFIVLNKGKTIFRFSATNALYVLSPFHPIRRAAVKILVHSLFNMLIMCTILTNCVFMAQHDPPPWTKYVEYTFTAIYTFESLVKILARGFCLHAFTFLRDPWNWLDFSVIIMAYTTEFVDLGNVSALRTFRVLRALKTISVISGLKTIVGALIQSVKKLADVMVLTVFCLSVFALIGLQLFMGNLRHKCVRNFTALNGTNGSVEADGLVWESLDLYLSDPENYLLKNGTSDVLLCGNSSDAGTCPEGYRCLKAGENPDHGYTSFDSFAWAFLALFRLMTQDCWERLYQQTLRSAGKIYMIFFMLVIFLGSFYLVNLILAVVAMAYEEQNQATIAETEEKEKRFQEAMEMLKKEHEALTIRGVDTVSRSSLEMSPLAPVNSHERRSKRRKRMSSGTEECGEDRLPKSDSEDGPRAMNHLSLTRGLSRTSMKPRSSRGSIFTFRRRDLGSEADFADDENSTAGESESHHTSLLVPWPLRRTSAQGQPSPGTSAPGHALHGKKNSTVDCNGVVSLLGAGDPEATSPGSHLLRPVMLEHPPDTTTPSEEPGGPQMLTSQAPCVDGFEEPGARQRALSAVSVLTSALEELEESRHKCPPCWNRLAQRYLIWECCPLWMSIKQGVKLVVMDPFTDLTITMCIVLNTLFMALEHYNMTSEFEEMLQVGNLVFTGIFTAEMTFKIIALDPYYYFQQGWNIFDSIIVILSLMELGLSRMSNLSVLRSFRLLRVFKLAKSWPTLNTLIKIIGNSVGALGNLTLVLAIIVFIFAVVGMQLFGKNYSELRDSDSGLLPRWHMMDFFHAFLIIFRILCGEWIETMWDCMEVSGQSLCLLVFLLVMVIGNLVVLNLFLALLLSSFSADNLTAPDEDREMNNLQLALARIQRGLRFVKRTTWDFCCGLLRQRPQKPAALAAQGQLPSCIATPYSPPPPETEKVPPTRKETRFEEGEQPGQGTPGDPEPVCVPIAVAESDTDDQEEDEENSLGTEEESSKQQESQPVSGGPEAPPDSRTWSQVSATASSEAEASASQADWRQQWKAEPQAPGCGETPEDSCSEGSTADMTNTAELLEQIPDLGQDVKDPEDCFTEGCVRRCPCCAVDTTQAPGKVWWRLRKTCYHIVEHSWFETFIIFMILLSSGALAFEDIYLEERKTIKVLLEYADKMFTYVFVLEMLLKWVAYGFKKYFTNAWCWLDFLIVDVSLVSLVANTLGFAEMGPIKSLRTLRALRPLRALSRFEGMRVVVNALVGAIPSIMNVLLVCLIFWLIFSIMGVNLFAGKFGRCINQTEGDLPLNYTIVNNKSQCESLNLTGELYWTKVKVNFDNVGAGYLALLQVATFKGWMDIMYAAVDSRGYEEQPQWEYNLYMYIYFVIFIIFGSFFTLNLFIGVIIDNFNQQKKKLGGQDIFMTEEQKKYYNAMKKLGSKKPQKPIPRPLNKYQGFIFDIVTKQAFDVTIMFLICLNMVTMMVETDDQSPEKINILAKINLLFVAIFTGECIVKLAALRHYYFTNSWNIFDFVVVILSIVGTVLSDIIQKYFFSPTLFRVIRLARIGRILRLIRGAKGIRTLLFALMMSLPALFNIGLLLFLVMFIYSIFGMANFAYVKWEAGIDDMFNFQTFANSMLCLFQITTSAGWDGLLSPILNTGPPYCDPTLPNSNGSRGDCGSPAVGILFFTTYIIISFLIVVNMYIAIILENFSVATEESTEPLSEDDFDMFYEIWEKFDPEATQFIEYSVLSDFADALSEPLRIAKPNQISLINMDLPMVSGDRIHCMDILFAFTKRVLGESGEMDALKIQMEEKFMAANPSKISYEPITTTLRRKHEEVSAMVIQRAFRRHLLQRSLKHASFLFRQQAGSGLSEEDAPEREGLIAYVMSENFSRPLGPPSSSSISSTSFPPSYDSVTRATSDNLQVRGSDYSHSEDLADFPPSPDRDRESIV
Summary of the method: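 HEK293 cells stably expressing Nav 1.5, whole-cell voltage clamp held at −50 mV; 20 msec test pulses to 0 mV at 0.1 Hz, each preceded by a step to −120 mV.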

Nav 1.7 [2] = molecular target: T1, Nav 1.7; assay: Nav 1.7 in vitro PX assay (PatchXpress whole cell voltage clamp); conditions: 293 cells, human Nav1.7, partially inactivated state; read-out: Nav1.7 PX IC50 IP
Summary of the method: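 Partially inactivated channel state (holding potential for 20–50% inactivation) probed in human Nav1.7-transfected 293 cells by automated patch clamp, test pulse −10 mV for 20 msec.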

[3] = 293 cells stably transfected with Nav 1.5, first part of table, read-out: Nav 1.5 PX IC50
[4] = 293 cells stably transfected with Nav 1.5, second part of table, read-out: Nav1.5 PX IC50

T1 sequence (Q15858 whole entry): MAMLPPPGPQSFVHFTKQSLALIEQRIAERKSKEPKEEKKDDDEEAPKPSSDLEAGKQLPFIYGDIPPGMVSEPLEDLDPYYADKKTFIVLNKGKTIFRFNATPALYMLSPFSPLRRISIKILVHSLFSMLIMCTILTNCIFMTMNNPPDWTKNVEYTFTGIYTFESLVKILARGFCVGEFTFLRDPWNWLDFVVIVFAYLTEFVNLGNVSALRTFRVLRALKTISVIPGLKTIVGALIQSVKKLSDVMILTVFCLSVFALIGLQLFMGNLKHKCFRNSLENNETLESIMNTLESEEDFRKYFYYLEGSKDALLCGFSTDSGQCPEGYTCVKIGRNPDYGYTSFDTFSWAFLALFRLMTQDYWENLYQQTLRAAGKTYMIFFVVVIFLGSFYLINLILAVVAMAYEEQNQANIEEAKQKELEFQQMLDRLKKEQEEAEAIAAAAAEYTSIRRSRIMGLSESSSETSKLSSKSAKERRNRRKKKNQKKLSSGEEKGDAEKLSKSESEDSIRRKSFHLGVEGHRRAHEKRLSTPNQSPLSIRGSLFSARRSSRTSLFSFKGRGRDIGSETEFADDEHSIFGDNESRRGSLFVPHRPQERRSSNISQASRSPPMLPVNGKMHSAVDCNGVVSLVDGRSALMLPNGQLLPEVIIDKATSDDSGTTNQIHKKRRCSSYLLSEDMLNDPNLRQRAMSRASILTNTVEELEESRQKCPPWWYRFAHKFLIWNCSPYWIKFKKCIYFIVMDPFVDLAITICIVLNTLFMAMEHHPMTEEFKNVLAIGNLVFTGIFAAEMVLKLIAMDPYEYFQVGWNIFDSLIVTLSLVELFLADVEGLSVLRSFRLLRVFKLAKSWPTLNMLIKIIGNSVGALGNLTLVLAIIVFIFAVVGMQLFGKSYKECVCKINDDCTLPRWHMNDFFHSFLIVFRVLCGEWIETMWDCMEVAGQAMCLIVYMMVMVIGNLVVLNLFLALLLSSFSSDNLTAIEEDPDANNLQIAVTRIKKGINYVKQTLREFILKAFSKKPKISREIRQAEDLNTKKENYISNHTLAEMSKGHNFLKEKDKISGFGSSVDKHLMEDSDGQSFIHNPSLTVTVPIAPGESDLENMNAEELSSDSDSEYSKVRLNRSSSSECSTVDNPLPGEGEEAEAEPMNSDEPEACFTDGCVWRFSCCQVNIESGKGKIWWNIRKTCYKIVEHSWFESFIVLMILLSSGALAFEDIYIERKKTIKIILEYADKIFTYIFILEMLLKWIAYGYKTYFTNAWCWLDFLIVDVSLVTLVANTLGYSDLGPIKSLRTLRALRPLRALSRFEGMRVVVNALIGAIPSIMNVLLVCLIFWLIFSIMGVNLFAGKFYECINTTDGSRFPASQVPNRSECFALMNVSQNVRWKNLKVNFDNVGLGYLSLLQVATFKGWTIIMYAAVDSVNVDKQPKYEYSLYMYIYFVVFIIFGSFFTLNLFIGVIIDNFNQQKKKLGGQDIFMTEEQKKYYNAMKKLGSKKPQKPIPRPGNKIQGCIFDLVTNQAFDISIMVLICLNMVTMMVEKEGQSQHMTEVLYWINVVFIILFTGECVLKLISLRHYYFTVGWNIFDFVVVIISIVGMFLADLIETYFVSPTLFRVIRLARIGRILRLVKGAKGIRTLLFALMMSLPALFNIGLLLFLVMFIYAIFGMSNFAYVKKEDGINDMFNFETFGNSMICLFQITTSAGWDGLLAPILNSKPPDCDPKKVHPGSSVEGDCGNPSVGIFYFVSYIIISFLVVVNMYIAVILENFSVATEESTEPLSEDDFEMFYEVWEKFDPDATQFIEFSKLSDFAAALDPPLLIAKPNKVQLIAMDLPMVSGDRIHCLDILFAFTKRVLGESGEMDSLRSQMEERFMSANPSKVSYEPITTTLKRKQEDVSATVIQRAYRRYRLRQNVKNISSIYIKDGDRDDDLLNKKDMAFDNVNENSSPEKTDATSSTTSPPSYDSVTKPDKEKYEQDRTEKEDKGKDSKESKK

| IC50 (Nav 1.7 [1]) [nM] | IC50 (Nav 1.7 [2]) [nM] | Compound | IC50 (Nav 1.5; [3]) [nM] | IC50 (Nav 1.5) [nM] | IC50 (Nav 1.5; [4]) [nM] |
| --- | --- | --- | --- | --- | --- |
| 30 | – | O=S(=O)(Nc1ncns1)c1ccc2c(-c3ccc(C(F)(F)F)cc3-c3ccncc3)cccc2c1 [Example 2] | > 30000 | – | – |
| 90 | – | O=S(=O)(Nc1ncns1)c1ccc2c(-c3ccc(F)cc3Br)cccc2c1 [Example 3] | 24200 | – | – |
| 900 | – | O=S(=O)(Nc1ncns1)c1ccc2c(-c3ccc(OC(F)(F)F)cc3Cl)cccc2c1 [Example 4] | 10900 | – | – |
| 170 | – | O=S(=O)(Nc1ncns1)c1ccc2c(-c3ccc(F)cc3Cl)cccc2c1 [Example 5] | 23800 | – | – |
| 200 | – | O=S(=O)(Nc1ncns1)c1ccc2c(-c3ccccc3Cl)cccc2c1 [Example 8] | 21300 | – | – |
| 460 | – | O=S(=O)(Nc1ncns1)c1ccc2c(-c3ccccc3)cccc2c1 [Example 9] | 23800 | – | – |
| 50 | – | CCOc1cc(C(F)(F)F)ccc1-c1cccc2cc(S(=O)(=O)Nc3ncns3)ccc12 [Example 10] | 6680 | – | – |
| 80 | – | Cc1cc(C(F)(F)F)ccc1-c1cccc2cc(S(=O)(=O)Nc3ncns3)ccc12 [Example 11] | 5070 | – | – |
| 10 | – | COc1cc(C(F)(F)F)ccc1-c1cccc2cc(S(=O)(=O)Nc3ncns3)ccc12 [Example 12] | 11600 | – | – |
| 40 | – | N#Cc1cc(C(F)(F)F)ccc1-c1cccc2cc(S(=O)(=O)Nc3ncns3)ccc12 [Example 22] | > 30000 | – | – |
| 110 | – | O=S(=O)(Nc1ncns1)c1ccc2c(-c3ccc(C(F)(F)F)cc3Br)cccc2c1 [Example 23] | 20700 | – | – |
| 50 | – | Cn1nccc1-c1cc(Cl)ccc1-c1cccc2cc(S(=O)(=O)Nc3ncns3)ccc12 [Example 25] | > 30000 | – | – |
| 20 | – | O=S(=O)(Nc1ncns1)c1ccc2c(-c3ccc(Cl)cc3-c3cn[nH]c3)cccc2c1 [Example 27, 5-(4-CHLORO-2-(1H-PYRAZOL-4-YL)PHENYL)-N-(1,2,4-THIADIAZOL-5-YL)NAPHTHALENE-2 SULFONAMIDE] | > 30000 | – | – |
| 50 | – | O=S(=O)(Nc1ncns1)c1ccc2c(-c3ccc(Cl)cc3-c3ccncc3)cccc2c1 [Example 28] | > 30000 | – | – |
| 50 | – | O=S(=O)(Nc1ncns1)c1ccc2c(-c3ccc(C(F)(F)F)cc3Cl)cccc2c1 [Example 29] | > 30000 | – | – |
| 170 | – | NC(=O)c1cc(C(F)(F)F)ccc1-c1cccc2cc(S(=O)(=O)Nc3ncns3)ccc12 [Example 32] | > 30000 | – | – |
| 1540 | – | O=S(=O)(Nc1ncns1)c1ccc2c(-c3ccc(Cl)cc3C(F)(F)F)cccc2c1 [Example 39] | 7770 | – | – |
| 1970 | – | O=S(=O)(Nc1ncns1)c1ccc2c(-c3ccc(Cl)cc3Cl)cccc2c1 [Example 40] | > 30000 | – | – |
| 270 | – | Cn1nccc1-c1cc(C(F)(F)F)ccc1-c1cccc2cc(S(=O)(=O)Nc3nccs3)ccc12 [Example 47] | 5820 | – | – |
| 30 | – | O=S(=O)(Nc1ncns1)c1ccc2c(-c3ccc(C(F)(F)F)cc3Br)nccc2c1 [Example 50, 1-(2-BROMO-4-(TRIFLUOROMETHYL)PHENYL)-N-(1,2,4-THIADIAZOL-5-YL)ISOQUINOLINE-6-SULFONAMIDE] | > 30000 | – | – |
| – | 100 | COc1cc(Cl)ccc1-c1ncnc2cc(S(=O)(=O)Nc3ncns3)ccc12 [Example 524, 4-(4-CHLORO-2-METHOXYPHENYL)-N-(1,2,4-THIADIAZOL-5-YL)QUINAZOLINE-7-SULFONAMIDE] | – | – | > 30000 |

The remaining lines, values behind:

| Compound | IC50 (Nav 1.7 [1]) [nM] | IC50 (Nav 1.7 [2]) [nM] | IC50 (Nav 1.5; [3]) [nM] | IC50 (Nav 1.5) [nM] | IC50 (Nav 1.5; [4]) [nM] |
| --- | --- | --- | --- | --- | --- |
| O=S(=O)(Nc1ncns1)c1ccc2c(N3CCOC(c4ccccc4)C3)cccc2c1 (single isomer, unassigned) [14 (isomer 2), 5-(2-phenylmorpholino)-N-(1,2,4-thiadiazol-5-yl)naphthalene-2-sulfonamide] | 1800 | – | > 30000 | – | – |
| O=S(=O)(Nc1ncns1)c1ccc2c(-c3ccc(Cl)cc3C3=CCNCC3)cccc2c1 [Example 26] | 20 | – | – | > 30000 | – |
| O=S(=O)(Nc1nccs1)c1ccc2c(-c3ccc(C(F)(F)F)cc3Cl)nccc2c1 [Example 51, 1-(2-CHLORO-4-(TRIFLUOROMETHYL)PHENYL)-N-(THIAZOL-2-YL)ISOQUINOLINE-6-SULFONAMIDE] | 110 | – | > 30000 | – | – |
| COc1ccc(-c2cccc(F)c2)cc1-c1n[nH]c(=O)c2cc(S(=O)(=O)Nc3ccncn3)ccc12 [Example 509, 1-(3′-FLUORO-4-METHOXY-[1,1′-BIPHENYL]-3-YL)-4-OXO-N-(PYRIMIDIN-4-YL)-3,4-DIHYDROPHTHALAZINE-6-SULFONAMIDE] | – | 218 | – | – | > 30000 |
| COc1cc(C(F)(F)F)ccc1-c1nc(C)nc2cc(S(=O)(=O)Nc3nccs3)ccc12 [Example 510, 4-(2-METHOXY-4-(TRIFLUOROMETHYL)PHENYL)-2-METHYL-N-(THIAZOL-2-YL)QUINAZOLINE-7-SULFONAMIDE] | – | 464 | – | – | > 30000 |
| COc1nc(-c2ccc(C(F)(F)F)cc2OC)c2ccc(S(=O)(=O)Nc3nccs3)cc2n1 [Example 511, 2-methoxy-4-(2-methoxy-4-(trifluoromethyl)phenyl)-N-(thiazol-2-yl)quinazoline-7-sulfonamide] | – | 257 | – | – | > 30000 |
| COc1cc(C(F)F)c(F)cc1-c1ncnc2cc(S(=O)(=O)Nc3nccs3)ccc12 [Example 512, 4-(4-(DIFLUOROMETHYL)-5-FLUORO-2-METHOXYPHENYL)-N-(THIAZOL-2-YL)QUINAZOLINE-7-SULFONAMIDE] | – | 234 | – | – | > 30000 |
| COc1cc(C(F)F)c(F)cc1-c1ncnc2cc(S(=O)(=O)Nc3cscn3)ccc12 [Example 513, 4-(4-(difluoromethyl)-5-fluoro-2-methoxyphenyl)-N-(thiazol-4-yl)quinazoline-7-sulfonamide] | – | 783 | – | – | > 30000 |
| COc1cc(C(F)F)c(F)cc1-c1nc(C)nc2cc(S(=O)(=O)Nc3nccs3)ccc12 [Example 514, 4-(4-(difluoromethyl)-5-fluoro-2-methoxyphenyl)-2-methyl-N-(thiazol-2-yl)quinazoline-7-sulfonamide] | – | 383 | – | – | > 30000 |
| COc1cc(C(F)F)ccc1-c1nc(C)nc2cc(S(=O)(=O)Nc3nccs3)ccc12 [Example 515, 4-(4-(difluoromethyl)-2-methoxyphenyl)-2-methyl-N-(thiazol-2-yl)quinazoline-7-sulfonamide] | – | 478 | – | – | > 30000 |
| COc1cc(-c2cccc(F)c2)c(Cl)cc1-c1ncnc2cc(S(=O)(=O)Nc3ncns3)ccc12 [Example 521, 4-(2-CHLORO-3′-FLUORO-5-METHOXY-[1,1′-BIPHENYL]-4-YL)-N-(1,2,4-THIADIAZOL-5-YL)QUINAZOLINE-7-SULFONAMIDE] | – | 19 | – | – | 4750 |
| COc1cc(-c2cccc(F)c2)c(Cl)cc1-c1ncnc2cc(S(=O)(=O)Nc3nncs3)ccc12 [Example 522, 4-(2-CHLORO-3′-FLUORO-5-METHOXY-[1,1′-BIPHENYL]-4-YL)-N-(1,3,4-THIADIAZOL-2-YL)QUINAZOLINE-7-SULFONAMIDE] | – | 34 | – | – | > 30000 |
| COc1cc(-c2cccc(F)c2)c(Cl)cc1-c1ncnc2cc(S(=O)(=O)Nc3ccncn3)ccc12 [Example 523, 4-(2-CHLORO-3′-FLUORO-5-METHOXY-[1,1′-BIPHENYL]-4-YL)-N-(PYRIMIDIN-4-YL)QUINAZOLINE-7-SULFONAMIDE] | – | 65 | – | – | 6590 |
| COc1cc(-c2cccc(F)c2)ccc1-c1ncnc2cc(S(=O)(=O)Nc3ncns3)ccc12 [Example 525, 4-(3′-FLUORO-3-METHOXY-[1,1′-BIPHENYL]-4-YL)-N-(1,2,4-THIADIAZOL-5-YL)QUINAZOLINE-7-SULFONAMIDE] | – | 58 | – | – | > 30000 |
| COc1cc(-c2cccc(F)c2)ccc1-c1ncnc2cc(S(=O)(=O)Nc3ccncn3)ccc12 [Example 527, 4-(3′-FLUORO-3-METHOXY-[1,1′-BIPHENYL]-4-YL)-N-(PYRIMIDIN-4-YL)QUINAZOLINE-7-SULFONAMIDE] | – | 252 | – | – | > 30000 |
| COc1cc(-c2cccc(C(F)(F)F)c2)ccc1-c1ncnc2cc(S(=O)(=O)Nc3ccncn3)ccc12 [Example 528, 4-(3-METHOXY-3′-(TRIFLUOROMETHYL)-[1,1′-BIPHENYL]-4-YL)-N-(PYRIMIDIN-4-YL)QUINAZOLINE-7-SULFONAMIDE] | – | 58 | – | – | > 30000 |
| COc1cc(-c2cccc(F)c2)ccc1-c1ncnc2cc(S(=O)(=O)Nc3nncs3)ccc12 [Example 529, 4-(3′-FLUORO-3-METHOXY-[1,1′-BIPHENYL]-4-YL)-N-(1,3,4-THIADIAZOL-2-YL)QUINAZOLINE-7-SULFONAMIDE] | – | 258 | – | – | > 30000 |
| COc1cc(-c2ccc(F)c(F)c2)ccc1-c1ncnc2cc(S(=O)(=O)Nc3nncs3)ccc12 [Example 530, 4-(3′,4′-DIFLUORO-3-METHOXY-[1,1′-BIPHENYL]-4-YL)-N-(1,3,4-THIADIAZOL-2-YL)QUINAZOLINE-7-SULFONAMIDE] | – | 233 | – | – | > 30000 |
| COc1cc(-c2cc(F)cc(F)c2)ccc1-c1ncnc2cc(S(=O)(=O)Nc3nncs3)ccc12 [Example 531, 4-(3′,5′-DIFLUORO-3-METHOXY-[1,1′-BIPHENYL]-4-YL)-N-(1,3,4-THIADIAZOL-2-YL)QUINAZOLINE-7-SULFONAMIDE] | – | 231 | – | – | > 30000 |
| Cc1cc(Cl)ccc1-c1ncnc2cc(S(=O)(=O)Nc3ncns3)ccc12 [Example 532] | – | 996 | – | – | > 30000 |
